Experimental data taken from paper PMC3464284, “Virtual Screening as a Strategy for the Identification of Xenobiotics Disrupting Corticosteroid Action” (PLoS ONE, 2012).
Structures can show the parent of a compound that is named as a salt. Where two headings read alike, the source gives them in different places.

Assays:
Format in all cases: biochemical
11β-HSD1 [1] = molecular target: T1, 11β-HSD1 (Homo sapiens, UniProt P28845); experiment: radiolabeled cortisone to cortisol conversion, HEK-293 lysate; conditions: for 11β-HSD1 activity (% of control): 20 µM, […] cortisone, […] NADPH, […]°C, […] min; for remaining activity at 20 µM: read-out: 11β-HSD1 activity (% of control)
T1 construct: gene HSD11B1; stably expressed in HEK-293 cells, cell lysate
T1 sequence (P28845 whole entry): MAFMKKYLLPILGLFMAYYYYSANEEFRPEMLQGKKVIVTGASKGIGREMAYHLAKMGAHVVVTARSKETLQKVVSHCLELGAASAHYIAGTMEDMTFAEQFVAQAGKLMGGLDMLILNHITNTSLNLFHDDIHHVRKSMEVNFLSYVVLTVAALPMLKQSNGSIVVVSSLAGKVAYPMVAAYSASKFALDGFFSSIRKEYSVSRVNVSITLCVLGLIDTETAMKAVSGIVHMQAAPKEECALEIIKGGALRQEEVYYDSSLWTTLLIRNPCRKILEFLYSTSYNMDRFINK
Description: radiolabeled cortisone to cortisol conversion, HEK-293 lysate on 11β-HSD1

11β-HSD2 [2] = molecular target: T2, 11β-HSD2 (Homo sapiens, UniProt P80365); experiment: radiolabeled cortisol to cortisone conversion, HEK-293 lysate
T2 construct: gene HSD11B2; stably expressed in HEK-293 cells, cell lysate
T2 sequence (P80365 1-405): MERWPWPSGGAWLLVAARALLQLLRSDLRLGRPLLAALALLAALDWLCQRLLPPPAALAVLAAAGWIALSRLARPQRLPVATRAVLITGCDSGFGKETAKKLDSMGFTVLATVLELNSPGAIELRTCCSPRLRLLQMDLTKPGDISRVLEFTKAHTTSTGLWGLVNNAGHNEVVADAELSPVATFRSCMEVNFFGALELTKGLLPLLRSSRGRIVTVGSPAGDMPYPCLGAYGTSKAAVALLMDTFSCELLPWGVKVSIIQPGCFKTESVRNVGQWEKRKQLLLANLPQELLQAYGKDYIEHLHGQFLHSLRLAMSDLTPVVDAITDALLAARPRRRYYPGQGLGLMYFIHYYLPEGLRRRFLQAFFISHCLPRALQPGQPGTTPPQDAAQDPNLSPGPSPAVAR

11β-HSD2 [3] = molecular target: T2, 11β-HSD2; experiment: as above; conditions: for 11β-HSD2 activity (% of control): 20 µM, […] cortisol, […] NAD+, […]°C, […] min
11β-HSD1 [4] = molecular target: T1, 11β-HSD1; experiment: radiolabeled cortisone to cortisol conversion, HEK-293 lysate
[5] = read-out: 11β-HSD2 activity (% of control)

With `CCO[Si](CCCSSSSCCC[Si](OCC)(OCC)OCC)(OCC)OCC` [AB110873, bis[3-(triethoxysilyl)propyl] tetrasulfide] the “11β-HSD1 activity (% of control)” value (11β-HSD1 [1]) was 79±3.

For `CC[C@@H](C(=O)[C@@H](C)[C@@H](O)[C@H](C)CCc1ccc(C)c(O)c1C(=O)O)[C@H]1O[C@](CC)([C@H]2CC[C@](O)(CC)[C@H](C)O2)C[C@@H]1C` [lasalocid], the IC50 (11β-HSD2 [2]) was 14 ± 3 µM and the remaining activity at 20 µM (11β-HSD1 [1]) was 84 ± 3%.

`C[C@]12CC[C@H](O)C[C@H]1CC[C@@H]1[C@@H]2CC[C@]2(C)[C@@H](C3=CC(=O)OC3)CC[C@]12O` [Digitoxigenin] was tested, and the “11β-HSD2 activity (% of control)” value (11β-HSD2 [3]) was 104±4 and the “11β-HSD1 activity (% of control)” value (11β-HSD1 [1]) was 36±2.

`CCO[Si](CCCS)(OCC)OCC` [3-mercaptopropyl triethoxysilane] was tested, and the remaining activity at 20 µM (11β-HSD2 [3]; read-out: remaining activity at 20 μM) was 80 ± 7%.

With `CC[C@H]1CN2CCc3cc(OC)c(OC)cc3[C@@H]2C[C@@H]1C[C@H]1NCCc2cc(O)c(OC)cc21` [(−) Cephaeline dihydrochloride] the “11β-HSD2 activity (% of control)” value (11β-HSD2 [3]) was 74±2 and the “11β-HSD1 activity (% of control)” value (11β-HSD1 [1]) was 100±2.

Work on `C[C@@H]1CC[C@@]2(OC1)O[C@H]1C[C@H]3[C@@H]4CC[C@H]5C[C@@H](O)CC[C@]5(C)[C@H]4CC(=O)[C@]3(C)[C@H]1[C@@H]2C` [Hecogenin] yielded a remaining activity at 20 µM (11β-HSD2 [3]; [5]) of 82 ± 2% and a remaining activity at 20 µM (11β-HSD1 [1]) of 49 ± 9%.

For `CC(C)OC(=O)C(C)(C)Oc1ccc(C(=O)c2ccc(Cl)cc2)cc1` [fenofibrate], the remaining activity at 20 µM (11β-HSD2 [3]; [5]) was 140 ± 40% and the IC50 (11β-HSD1 [4]) was 3.8 ± 0.3 µM.
